Experimental data from patent US10801035B2, “Plants having increased tolerance to herbicides” (BASF SE, priority 2011, dated 2020).
pKi: −log10 of the molar value.

Legend:
[1] = target: T1, Arabidopsis HPPD (SEQ ID: 53) (Arabidopsis thaliana, UniProt P93836); assay: HPPD activity assay, wildtype Arabidopsis HPPD; assay type: biochemical; details: for Normalized tolerance index (TI): Arabidopsis HPPD Wildtype, normalized on wildtype (Table 11); for pKi / TI (tolerance index): Arabidopsis HPPD; for pKi: Cheng-Prusoff from IC50, read-out: Ki (dissociation constant); for TI (tolerance index): not normalized
T1 construct: His6 (N); made in house; host or cells: E. coli BL21 (DE3)
T1 sequence (P93836 1-445): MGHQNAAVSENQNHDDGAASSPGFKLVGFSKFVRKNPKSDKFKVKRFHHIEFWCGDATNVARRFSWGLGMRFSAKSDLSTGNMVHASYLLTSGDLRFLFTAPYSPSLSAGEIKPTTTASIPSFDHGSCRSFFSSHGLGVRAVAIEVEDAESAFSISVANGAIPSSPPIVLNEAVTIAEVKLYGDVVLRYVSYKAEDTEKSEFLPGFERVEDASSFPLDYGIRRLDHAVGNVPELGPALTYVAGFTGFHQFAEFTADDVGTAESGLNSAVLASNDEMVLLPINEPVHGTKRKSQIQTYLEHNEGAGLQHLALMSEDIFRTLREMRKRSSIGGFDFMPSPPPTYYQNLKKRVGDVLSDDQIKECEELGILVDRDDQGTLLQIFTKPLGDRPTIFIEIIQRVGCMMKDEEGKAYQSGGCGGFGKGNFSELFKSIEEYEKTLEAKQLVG
Description: (§1) HPPD produces homogentisic acid and CO2 from 4-hydroxyphenylpyruvate (4-HPP) and O2. The activity assay for HPPD is based on the analysis of homogentisic acid by reversed phase HPLC.
The assay mixture can contain 150 mM potassium phosphate buffer pH 7.0, 50 mM L-ascorbic acid, 1 μM FeSO4 and 7 μg of purified enzyme in a total volume of 1 ml. Inhibitors are dissolved in DMSO (dimethylsulfoxide) to a concentration of 20 mM or 0.5 mM, respectively. From this stock solution serial five-fold dilutions are prepared in DMSO, which are used in the assay. The respective inhibitor solution accounts for 1% of the assay volume. Thus, final inhibitor concentrations range from 200 μM to 2.5 nM or from 5 μM to 63 pM, respectively. After a preincubation of 30 min the reaction is started by adding 4-HPP to a final concentration of 0.1 mM. The reaction is allowed to proceed for 120 min at room temperature. The reaction is stopped by addition of 100 μl of 4.5 M phosphoric acid.
Activities are normalized by setting the uninhibited enzyme activity to 100%. […] values are calculated using non-linear regression.
The assay mixture can contain 150 mM potassium phosphate buffer pH 7.0, 50 mM L-ascorbic acid, 100 μM Catalase (Sigma-Aldrich), 1 μM FeSO4 and 0.2 units of purified HPPD enzyme in a total volume of 505 μl. 1 unit is defined as the amount of enzyme that is required to produce 1 nmol of HGA per minute at 20° C.
Inhibitors are dissolved in DMSO (dimethylsulfoxide) to a concentration of 0.5 mM. From this stock solution serial five-fold dilutions are prepared in DMSO, which are used in the assay. The respective inhibitor solution accounts for 1% of the assay volume. Thus, final inhibitor concentrations range from 5 μM to 320 pM, respectively. Activities are normalized by setting the uninhibited enzyme activity to 100%. IC50 values are calculated using non-linear regression.
Using methods which are described in the above examples or well known in the art, purified, recombinant wildtype HPPD enzymes are characterized with respect to their kinetic properties and sensitivity towards HPPD inhibiting herbicides. Apparent michaelis constants (Km) and maximal reaction velocities (Vmax) are calculated by non-linear regression with the software GraphPad Prism 5 (GraphPad Software, La Jolla, USA) using a substrate inhibition model. Apparent kcat values are calculated from Vmax assuming 100% purity of the enzyme preparation. Weighted means (by standard error) of Km and […] values are calculated from at least three independent experiments. The Cheng-Prusoff equation for competitive inhibition (Cheng, Y. C.; Prusoff, W. H. Biochem Pharmacol 1973, 22, 3099-3108) is used to calculate dissociation constants (Ki).
Field performance of the HPPD enzyme, which is used as a herbicide tolerance trait may depend not only on its lack of sensitivity towards HPPD inhibiting herbicides but also on its activity. To assess the potential performance of a herbicide tolerance trait a tolerance index (TI) is calculated using the following formula: […]
Easy comparison and ranking of each trait is enabled by normalizing every tolerance index on Hordeum HPPD.

[2] = tested on: Rhodococcus HPPD2; assay: HPPD activity assay, Rhodococcus HPPD2; assay type: biochemical; details: normalized on Hordeum HPPD
Description: as §1
(§2) The assay mixture can contain 150 mM potassium phosphate buffer pH 7.0, 50 mM L-ascorbic acid, 1 μM FeSO4 and 7 μg of purified enzyme in a total volume of 1 ml. Inhibitors are dissolved in DMSO (dimethylsulfoxide) to a concentration of 20 mM or 0.5 mM, respectively. From this stock solution serial five-fold dilutions are prepared in DMSO, which are used in the assay. The respective inhibitor solution accounts for 1% of the assay volume. […]
(§3) Activities are normalized by setting the uninhibited enzyme activity to 100%. […] values are calculated using non-linear regression. […]
(§4) Inhibitors are dissolved in DMSO (dimethylsulfoxide) to a concentration of 0.5 mM. […] IC50 values are calculated using non-linear regression.
(§5) Using methods which are described in the above examples or well known in the art, purified, recombinant wildtype HPPD enzymes are characterized with respect to their kinetic properties and sensitivity towards HPPD inhibiting herbicides. Apparent michaelis constants (Km) and maximal reaction velocities (Vmax) are calculated by non-linear regression with the software GraphPad Prism 5 (GraphPad Software, La Jolla, USA) using a substrate inhibition model. […]

[3] = tested on: Rhodococcus HPPD1; assay: HPPD activity assay, Rhodococcus HPPD1; assay type: biochemical; details: normalized on Hordeum HPPD
Description: as §1, §2, §3, §4, §5

[4] = tested on: Arabidopsis wildtype control plants; assay: Arabidopsis growth inhibition in 48-well plates, wildtype control; assay type: in vivo, Arabidopsis thaliana; details: plant growth IC50 divided by that of wildtype plants
Description: Depending on the species, the plants are kept at 10-25° C. or 20-35° C. The test period extends over 3 weeks. During this time, the plants are tended and their response to the individual treatments is evaluated. Herbicide injury evaluations are taken at 2 and 3 weeks after treatment. Plant injury is rated on a scale of 0 to 9, 0 being no injury and 9 being complete death. Tolerance to coumarone-derivative herbicides can also be assessed in Arabidopsis. In this case transgenic Arabidopsis thaliana plants are assayed for improved tolerance to coumarone-derivative herbicides in 48-well plates. Seeds are surface sterilized by stirring for 5 min in ethanol+water (70+30 by volume), rinsing one time with ethanol+water (70+30 by volume) and two times with a sterile, deionized water. The seeds are resuspended in 0.1% agar dissolved in water (w/v). Four to five seeds per well are plated on solid nutrient medium consisting of half-strength Murashige Skoog nutrient solution, pH 5.8 (Murashige and Skoog (1962) Physiologia Plantarum 15: 473-497). […] Seven to ten days after seeding growth inhibition is evaluated by comparison to wild type plants. Tolerance factor is calculated by dividing the plant growth IC50 value of transgenic plants containing a HPPD and/or HST sequence by that of wildtype plants. […]

In the case of `CC1=NOC(c2c(Cl)ccc(C3=C(O)c4ncccc4N(CC(F)F)S3(=O)=O)c2Cl)C1` (stereo not drawn) [Inhibitor 1, 3-[2,4-dichloro-3-(3-methyl-4,5-dihydroisoxazol-5-yl)phenyl]-1-(2,2-difluoroethyl)-2,2-dioxo-pyrido[3,2-c]thiazin-4-ol], the “Normalized tolerance index (TI)” value [1] was 1, the pKi [1] was 8.48 and the “TI (tolerance index)” value [1] was 3.3E−3. The “Normalized tolerance index (TI)” value [2] was 73.9, the “Normalized tolerance index (TI)” value [3] was 40.1 and the Tolerance factor [4] was 1.

With `O=S1(=O)C(c2c(Cl)cc(Cl)nc2Cl)=C(O)c2ncccc2N1CC(F)F` [Inhibitor 2, 1-(2,2-difluoroethyl)-2,2-dioxo-3-(2,4,6-trichloro-3-pyridyl)pyrido[3,2-c]thiazin-4-ol] the “Normalized tolerance index (TI)” value [1] was 1, the pKi [1] was 7.82 and the “TI (tolerance index)” value [1] was 1.5E−2. The “Normalized tolerance index (TI)” value [2] was 20.5, the “Normalized tolerance index (TI)” value [3] was 17.1 and the Tolerance factor [4] was 1.
